US9198420B2, “Rodenticidal norbormide analogues” (priority 2012, dated 2015)

Tests used:
[1] = Rat liver S9 fraction assay (release of NRB or NRB analogue); type: in vitro ADME, rat (male Sprague-Dawley); details: 1 mg/mL rat liver S9 fraction, 37° C., 6 h, n = 3
Experimental: The hydrolytic stability of compounds of the invention was also evaluated in vitro using rat liver S9 fraction (20 mg/mL), pooled from male rat (Sprague-Dawley), obtained from Sigma-Aldrich, diluted to 1 mg/mL with phosphate buffer (0.1 M, pH 7.4) and stored at −78° C. Similar assay conditions to those reported by Li Di and co-workers (Int. J. Pharm. 2005, 297, 110-119) were followed [200 μL total volume, 1 mg/mL rat liver S9 fraction (diluting with phosphate buffer (0.1 M, pH 7.4)), at a final compound concentration of 200 μM, 2.5% DMSO overall, 37° C., 6 h, n=3]. The assay protocol followed is as that described above for the rat serum assay, with an adjusted end-point of 6 h.

[2] = Simulated gastric fluid (SGF) hydrolytic stability assay; type: physicochemical; details: simulated gastric fluid without pepsin, pH 1.2, 37° C., 1 h, n = 3; for % NRB released, Hydrolytic Stability (simulated gastric fluid): footnote c: compounds not exhibiting vasoconstriction
Method in brief: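 Compounds at 200 μM final (2.5% DMSO) were held 1 h at 37 °C in pepsin-free USP simulated gastric fluid (0.03 M NaCl, pH 1.2 with HCl), n=3. […] was quantified by RP-LCMS.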

Sprague Dawley rats [3] = test: In vivo lethality, intravenous injection via the tail; parameters: species or system rat (Sprague Dawley); details: rat
Method in brief: (§1)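 Sprague Dawley rats (150-200 g) received compound dissolved in 0.2 M HCl (5% DMSO overall) at the desired dose, by oral gavage or tail-vein i.v. injection. Animals were watched for early toxicity signs every minute (i.v.) or every 15 min (oral).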

[4] = Rat serum assay (release of NRB or NRB analogue); type: in vitro ADME; details: 80% rat serum, 37° C., 3 h, n = 3
Method in brief: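 Compound (200 μM final) incubated in 80% rat serum diluted with 0.1 M phosphate pH 7.4, 2.5% DMSO, 37 °C for 3 h, n=3, then quenched in ice-cold acetonitrile. NRB or analogue release was quantified by RP-LCMS against external calibration curves, expressed as percent released.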

rat caudal artery = test: Rat caudal artery ring contractile force (vasoconstrictory activity); parameters: species or system rat (male Wistar)
Method in brief: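 Endothelium-denuded caudal artery rings from male Wistar rats were held at 2 g resting tension in Tyrode solution (37° C, pH 7.35, 95% O2/CO2) and isometric force was recorded. Compounds were tested at 50 μM, with contraction expressed as percent of the 90 mM KCl response.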

Sprague Dawley rats [5] = test: In vivo lethality, oral gavage; parameters: species or system rat (Sprague Dawley); details: rat, n = 2
Method in brief: as §1

[6] = Table 5, compounds of formula (III)

SMILES | % NRB released, Rat Liver S9 [1] [%] | % NRB released, Hydrolytic Stability (simulated gastric fluid) [2] | In vivo lethality (i.v.) (Sprague Dawley rats [3]; 20 mg/Kg, n = 2) | % NRB released, Rat Serum [4] [%] | Vasoconstriction: maximum contractile effect as a % of 90 mM KCl contraction (rat caudal artery; Table 1, compound at 50 μM) [%] | Vasoconstriction: maximum contractile effect as a % of 90 mM KCl contraction (rat caudal artery; Table 4, pre-cleavage, n = 3) [%] | In vivo lethality (oral) (Sprague Dawley rats [5]; 40 mg/Kg) | In vivo lethality (oral) (Sprague Dawley rats [5]; 20 mg/Kg) | % NRB released, Hydrolytic Stability [2] [%] | In vivo lethality (i.v.) (Sprague Dawley rats [3]; 20 mg/Kg, n = 2, Table 6) | Vasoconstriction: maximum contractile effect as a % of 90 mM KCl contraction (rat caudal artery; [6]) [%] | Vasoconstriction: maximum contractile effect as a % of 90 mM KCl contraction (rat caudal artery; n = 3, pre-cleavage, Table 6) [%] | In vivo lethality (i.v.) (Sprague Dawley rats [3]; 10 mg/Kg, n = 2, Table 6)
O=C(OCCN1C(=O)C2C3C=C(C(O)(c4ccccc4)c4ccccn4)C(C3=C(c3ccccc3)c3ccccn3)C2C1=O)C(c1ccccc1)c1ccccc1 (stereo not shown) [Compound 118] | 9.0 ± 0.7 | 0^c % | yes^f | <5 | 0 | 0 | no^h |  |  |  |  |  | 
O=C(OCCN1C(=O)C2C3C=C(C(O)(c4ccccc4)c4ccccn4)C(C3=C(c3ccccc3)c3ccccn3)C2C1=O)c1ccc2ccccc2c1 (stereo not drawn) [Compound 122, 5-(α-Hydroxy-α-2-pyridylbenzyl)-N-[2′-(2″-naphthoyloxy)ethyl]-7-(α-2-pyridylbenzylidene)-5-norbornene-2,3-dicarboximide] | 14.1 ± 0.5 | 0^c % | yes^f | 14.4 ± 3.0 | 0 | 0 | yes^h,i | yes^h,i |  |  |  |  | 
O=C(OCN1C(=O)C2C3C=C(C(O)(c4ccccc4)c4ccccn4)C(C3=C(c3ccccc3)c3ccccn3)C2C1=O)c1ccc2ccccc2c1 (stereo not drawn) [Compound 20, 5-(α-Hydroxy-α-2-pyridylbenzyl)-2′-naphthoyloxymethyl-7-(α-2-pyridylbenzylidene)-5-norbornene-2,3-dicarboximide] | 20.2 ± 0.8 | 0^c % | yes^f | 31.3 ± 2.7 | 0 | 0 | no^h |  |  |  |  |  | 
O=C(CCCCCCCCC(=O)OCN1C(=O)C2C3C=C(C(O)(c4ccccc4)c4ccccn4)C(C3=C(c3ccccc3)c3ccccn3)C2C1=O)OCN1C(=O)C2C3C=C(C(O)(c4ccccc4)c4ccccn4)C(C3=C(c3ccccc3)c3ccccn3)C2C1=O (stereo not drawn) [Compound 24, 5-(α-Hydroxy-α-2-pyridylbenzyl)-7-(α-2-pyridylbenzylidene)-N-sebacoyloxymethyl-5-norbornene-2,3-dicarboximide dimer] | 6.2 ± 0.2 |  |  | 8.6 ± 0.5 |  |  |  |  | 0 | no^e | 0 | 0 | 
O=C(CCC(=O)OCCN1C(=O)C2C3C=C(C(O)(c4ccccc4)c4ccccn4)C(C3=C(c3ccccc3)c3ccccn3)C2C1=O)OCCOC(=O)CCC(=O)OCCN1C(=O)C2C3C=C(C(O)(c4ccccc4)c4ccccn4)C(C3=C(c3ccccc3)c3ccccn3)C2C1=O (stereo not drawn) [Compound 144, N-[2′-Ethylenebis(hydrogensuccinoyloxy)ethyl]-5-(α-hydroxy-α-2-pyridylbenzyl)-7-(α-2-pyridylbenzylidene)-5-norbornene-2,3-dicarboximide dimer] | <5 |  |  | 14.5 ± 0.8 |  |  |  |  | 0 |  | 0 | 0 | no^f
O=C(CCCCCCCCC(=O)OCCN1C(=O)C2C3C=C(C(O)(c4ccccc4)c4ccccn4)C(C3=C(c3ccccc3)c3ccccn3)C2C1=O)OCCN1C(=O)C2C3C=C(C(O)(c4ccccc4)c4ccccn4)C(C3=C(c3ccccc3)c3ccccn3)C2C1=O (stereo not drawn) [Compound 141, 5-(α-Hydroxy-α-2-pyridylbenzyl)-7-(α-2-pyridylbenzylidene)-N-2′-sebacoyloxyethyl-5-norbornene-2,3-dicarboximide dimer] | <5 |  |  | <5 |  |  |  |  | 0 |  | 0 | 0 | no^f
